According to US9802927B2, “Oxadiazine compounds and methods of use thereof” (Denali Therapeutics, Inc., priority 2015, dated 2017):

tested on: Aβ42; experiment: In vitro cell screening assay in H4 cells expressing human APP751: Aβ42 by sandwich ELISA; format: cell-based; conditions: compounds 0.003-10 μM, incubated overnight (16-18 h), sandwich ELISA of supernatant
Protocol: Human neuroglioma H4 cells were transfected with a pcDNA3.1 plasmid expressing human wild type APP751 cDNA and a stable cell line was generated using G418 selection. Cells were plated at 15,000 cells/well in Costar 96-well plates and placed at 37° C. and 5% CO2. Six hours after plating, cells were washed three times with Pro293™ chemically defined medium, followed by addition of compounds (0.003-10 μM, final DMSO concentration of 0.33%). Plates were incubated overnight (16-18 h) and supernatant was removed for quantification of Aβ peptides by sandwich ELISA. Cytotoxicity was evaluated using Cell-Titer 96W AQueous One Solution Cell Proliferation Assay according to the manufacturer's protocol.
Aβ peptide levels were quantified by sandwich ELISA. 96-well plates were coated with C-terminal specific Aβ antibodies recognizing either Aβ37, Aβ38, Aβ40, Aβ42, Aβ43 or a N-terminal specific Aβ antibody to detect Aβ 1-x. Plates were then blocked overnight at 4° C. with 1% bovine serum albumin (BSA) in PBS-T. Plates were washed and 100 μl of cultured cell supernatant or synthetic Aβ peptide standards and a detection antibody (4G8-HRP) were applied to the blocked plate and incubated overnight at 4° C. The next day, wells were washed before the addition of detection substrate (TMB peroxidase). Plates were then read for absorbance at 450 nm on a Molecular Devices SpectraMax M5e Microplate Reader.
Compound-treated samples were normalized to samples treated with DMSO alone (no inhibition) and to samples treated with DAPT. EC50 values were calculated from values reported as percent of DMSO controls using nonlinear regression, based on a sigmoidal dose response (variable slope) model. GraphPAD software from Prism used for calculation.

SMILES | EC50
COc1nc(C2=NOCC(c3cc4cccc(C)c4o3)N2)ccc1-n1cnc(C)c1 (single isomer, unassigned) [Example 7A, 3-(6-Methoxy-5-(4-methyl-1H-imidazol-1-yl)pyridin-2-yl)-5-(7-methylbenzofuran-2-yl)-5,6-dihydro-4H-1,2,4-oxadiazine] | > 3000 nM
COc1nc(C2=NOCC(c3cc4cccc(C)c4o3)N2)ccc1-n1cnc(C)c1 (single isomer, unassigned) [Example 7B, 3-(6-Methoxy-5-(4-methyl-1H-imidazol-1-yl)pyridin-2-yl)-5-(7-methylbenzofuran-2-yl)-5,6-dihydro-4H-1,2,4-oxadiazine] | 23.3 nM
COc1nc(C2=NOCC(c3ccc(Cl)cc3C)N2C)ccc1-n1cnc(C)c1 (single isomer, unassigned) [Example 27A, 5-(4-chloro-2-methylphenyl)-3-(6-methoxy-5-(4-methyl-1H-imidazol-1-yl)pyridin-2-yl)-4-methyl-5,6-dihydro-4H-1,2,4-oxadiazine] | 2180 nM
COc1nc(C2=NOCC(c3ccc(Cl)cc3C)N2C)ccc1-n1cnc(C)c1 (single isomer, unassigned) [Example 27B, 5-(4-chloro-2-methylphenyl)-3-(6-methoxy-5-(4-methyl-1H-imidazol-1-yl)pyridin-2-yl)-4-methyl-5,6-dihydro-4H-1,2,4-oxadiazine] | 61.3 nM
COc1nc(C2=NOCC(c3ccccc3)N2)ccc1-n1cnc(C)c1 (single isomer, unassigned) [Example 36A, 3-(6-methoxy-5-(4-methyl-1H-imidazol-1-yl)pyridin-2-yl)-5-phenyl-5,6-dihydro-4H-1,2,4-oxadiazine] | 2740 nM
COc1nc(C2=NOCC(c3ccccc3)N2)ccc1-n1cnc(C)c1 (single isomer, unassigned) [Example 36B, 3-(6-methoxy-5-(4-methyl-1H-imidazol-1-yl)pyridin-2-yl)-5-phenyl-5,6-dihydro-4H-1,2,4-oxadiazine] | 97 nM
COc1nc(C2=NOCC(c3coc4ccccc34)N2)ccc1-n1cnc(C)c1 (single isomer, unassigned) [Example 38A, 5-(benzofuran-3-yl)-3-(6-methoxy-5-(4-methyl-1H-imidazol-1-yl)pyridin-2-yl)-5,6-dihydro-4H-1,2,4-oxadiazine] | > 3000 nM
COc1nc(C2=NOCC(c3coc4ccccc34)N2)ccc1-n1cnc(C)c1 (single isomer, unassigned) [Example 38B, 5-(benzofuran-3-yl)-3-(6-methoxy-5-(4-methyl-1H-imidazol-1-yl)pyridin-2-yl)-5,6-dihydro-4H-1,2,4-oxadiazine] | 22.4 nM
COc1nc(C2=NOCC(c3ccc(F)cc3)N2)ccc1-n1cnc(C)c1 (single isomer, unassigned) [Example 40A, 5-(4-fluorophenyl)-3-(6-methoxy-5-(4-methyl-1H-imidazol-1-yl)pyridin-2-yl)-5,6-dihydro-4H-1,2,4-oxadiazine] | > 3000 nM
COc1nc(C2=NOCC(c3ccc(F)cc3)N2)ccc1-n1cnc(C)c1 (single isomer, unassigned) [Example 40B, 5-(4-fluorophenyl)-3-(6-methoxy-5-(4-methyl-1H-imidazol-1-yl)pyridin-2-yl)-5,6-dihydro-4H-1,2,4-oxadiazine] | 59.5 nM
COc1nc(C2=NOCC(c3ccc(Cl)cc3)N2)ccc1-n1cnc(C)c1 (single isomer, unassigned) [Example 42A, 5-(4-chlorophenyl)-3-(6-methoxy-5-(4-methyl-1H-imidazol-1-yl)pyridin-2-yl)-5,6-dihydro-4H-1,2,4-oxadiazine] | > 3000 nM
COc1nc(C2=NOCC(c3ccc(Cl)cc3)N2)ccc1-n1cnc(C)c1 (single isomer, unassigned) [Example 42B, 5-(4-chlorophenyl)-3-(6-methoxy-5-(4-methyl-1H-imidazol-1-yl)pyridin-2-yl)-5,6-dihydro-4H-1,2,4-oxadiazine] | 28.3 nM

Further lines, results first:

EC50 | SMILES
> 3000 nM | COc1nc(C2=NOCC(c3ccc(F)c(C(F)(F)F)c3)N2)ccc1-n1cnc(C)c1 (single isomer, unassigned) [Example 44A, 5-(4-fluoro-3-(trifluoromethyl)phenyl)-3-(6-methoxy-5-(4-methyl-1H-imidazol-1-yl)pyridin-2-yl)-5,6-dihydro-4H-1,2,4-oxadiazine]
21.6 nM | COc1nc(C2=NOCC(c3ccc(F)c(C(F)(F)F)c3)N2)ccc1-n1cnc(C)c1 (single isomer, unassigned) [Example 44B, 5-(4-fluoro-3-(trifluoromethyl)phenyl)-3-(6-methoxy-5-(4-methyl-1H-imidazol-1-yl)pyridin-2-yl)-5,6-dihydro-4H-1,2,4-oxadiazine]
136 nM | COc1nc(C2=NOCC(c3c[nH]c4ccccc34)N2)ccc1-n1cnc(C)c1 (single isomer, unassigned) [Example 47A, 5-(1H-indol-3-yl)-3-(6-methoxy-5-(4-methyl-1H-imidazol-1-yl)pyridin-2-yl)-5,6-dihydro-4H-1,2,4-oxadiazine]
23.1 nM | COc1nc(C2=NOCC(c3c[nH]c4ccccc34)N2)ccc1-n1cnc(C)c1 (single isomer, unassigned) [Example 47B, 5-(1H-indol-3-yl)-3-(6-methoxy-5-(4-methyl-1H-imidazol-1-yl)pyridin-2-yl)-5,6-dihydro-4H-1,2,4-oxadiazine]
> 3000 nM | COc1nc(C2=NOCC(c3ccc(C(F)(F)F)c(F)c3)N2)ccc1-n1cnc(C)c1 (single isomer, unassigned) [Example 121A, 5-(3-fluoro-4-(trifluoromethyl)phenyl)-3-(6-methoxy-5-(4-methyl-1H-imidazol-1-yl)pyridin-2-yl)-5,6-dihydro-4H-1,2,4-oxadiazine]
21.4 nM | COc1nc(C2=NOCC(c3ccc(C(F)(F)F)c(F)c3)N2)ccc1-n1cnc(C)c1 (single isomer, unassigned) [Example 121B, 5-(3-fluoro-4-(trifluoromethyl)phenyl)-3-(6-methoxy-5-(4-methyl-1H-imidazol-1-yl)pyridin-2-yl)-5,6-dihydro-4H-1,2,4-oxadiazine]
2780 nM | COc1nc(C2=NOCC(c3ccc(F)cc3F)N2)ccc1-n1cnc(C)c1 (single isomer, unassigned) [Example 129A, 5-(2,4-difluorophenyl)-3-(6-methoxy-5-(4-methyl-1H-imidazol-1-yl)pyridin-2-yl)-5,6-dihydro-4H-1,2,4-oxadiazine]
128 nM | COc1nc(C2=NOCC(c3ccc(F)cc3F)N2)ccc1-n1cnc(C)c1 (single isomer, unassigned) [Example 129B, 5-(2,4-difluorophenyl)-3-(6-methoxy-5-(4-methyl-1H-imidazol-1-yl)pyridin-2-yl)-5,6-dihydro-4H-1,2,4-oxadiazine]
> 3000 nM | CCC1CON=C(c2ccc(-n3cnc(C)c3)c(OC)n2)N1 (single isomer, unassigned) [Example 133A, 5-ethyl-3-(6-methoxy-5-(4-methyl-1H-imidazol-1-yl)pyridin-2-yl)-5,6-dihydro-4H-1,2,4-oxadiazine]
728 nM | CCC1CON=C(c2ccc(-n3cnc(C)c3)c(OC)n2)N1 (single isomer, unassigned) [Example 133B, 5-ethyl-3-(6-methoxy-5-(4-methyl-1H-imidazol-1-yl)pyridin-2-yl)-5,6-dihydro-4H-1,2,4-oxadiazine]
